From ChEMBL document CHEMBL1133412, “Rational design, synthesis and structure-activity relationships of antitumor (E)-2-benzylidene-1-tetralones and (E)-2-benzylidene-1-indanones” (Bioorg Med Chem Lett, 2000)
Active and inactive are the calls of the source. The calls are words filed in the database; no cut-off is given here.

Experiments:
[1] = tested on: B16; assay: Cytotoxicity was evaluated against B16 tumor cell lines; Significant activity; type: functional, cell-based; details: Mus musculus
[2] = tested on: NCI-H596; assay: Cytotoxicity evaluated against H596 tumor cell lines; Significant activity; type: functional, cell-based; details: Homo sapiens
[3] = tested on: A549; assay: Cytotoxicity evaluated against A549 tumor cell lines; significant activity; type: functional, cell-based; details: Homo sapiens
[4] = tested on: MOLT-4; assay: Cytotoxicity was evaluated against Molt-4 tumor cell lines; type: functional, cell-based; details: Homo sapiens
[5] = tested on: NIH3T3; assay: Cytotoxicity evaluated against NIH3T3 tumor cell lines; Significant activity; type: functional, cell-based; details: Mus musculus
[6] = tested on: CCRF-CEM; assay: Cytotoxicity evaluated against CEM tumor cell lines; Significant activity; type: functional, cell-based; details: Homo sapiens
[7] = tested on: MCF7; assay: Cytotoxicity evaluated against MCF-7 tumor cell lines; Significant activity; type: functional, cell-based; details: Homo sapiens
[8] = tested on: K562; assay: Cytotoxicity evaluated against K562 tumor cell lines; Significant activity; type: functional, cell-based; details: Homo sapiens
[9] = tested on: WI-38; assay: Cytotoxicity evaluated against WI38 tumor cell lines; Significant activity; type: functional, cell-based; details: Homo sapiens
[10] = tested on: Tumor cell line; assay: In vivo testing against tumor cells that were placed in the polyvinylidene fluoride (PVDF) hollow fibers of capsules and then implanted in to mice intraperitoneally or subcutaneously; type: functional, Mus musculus
[11] = tested on: HL-60; assay: Cytotoxicity evaluated against HL-60 tumor cell lines; Significant activity; type: functional, cell-based; details: Homo sapiens
[12] = tested on: WIL2; assay: Cytotoxicity evaluated against WIL2 tumor cell lines; Significant activity; type: functional, cell-based; details: Homo sapiens
[13] = tested on: Jurkat; assay: In vitro test for antitumor activity against human Jurkat cell line using a formazan dye (MTT) conversion assay.; type: functional, cell-based
[14] = tested on: NCI-H292; assay: Cytotoxicity evaluated against H292 tumor cell lines; Significant activity; type: functional, cell-based; details: Homo sapiens
[15] = tested on: L1210; assay: Cytotoxicity evaluated against L1210 tumor cell lines; Significant activity; type: functional, cell-based; details: Mus musculus
[16] = tested on: K562; assay: Cytotoxicity was evaluated against K562 tumor cell lines; Slightly active; type: functional, cell-based; details: Homo sapiens
[17] = tested on: L1210; assay: Cytotoxicity was evaluated against L1210 tumor cell lines; Slightly active; type: functional, cell-based; details: Mus musculus
[18] = tested on: HL-60; assay: Cytotoxicity was evaluated against HL-60 tumor cell lines; Slightly active; type: functional, cell-based; details: Homo sapiens
[19] = tested on: WIL2; assay: Cytotoxicity was evaluated against WIL2 tumor cell lines; Slightly active; type: functional, cell-based; details: Homo sapiens
[20] = tested on: WI-38; assay: Cytotoxicity was evaluated against WI38 tumor cell lines; Slightly active; type: functional, cell-based; details: Homo sapiens
[21] = tested on: MOLT-4; assay: Cytotoxicity was evaluated against Molt-4 tumor cell lines; Slightly active; type: functional, cell-based; details: Homo sapiens
[22] = tested on: NCI-H596; assay: Cytotoxicity was evaluated against H596 tumor cell lines; Slightly active; type: functional, cell-based; details: Homo sapiens
[23] = tested on: A549; assay: Cytotoxicity was evaluated against A549 tumor cell lines; Slightly active; type: functional, cell-based; details: Homo sapiens
[24] = tested on: MCF7; assay: Cytotoxicity was evaluated against MCF-7 tumor cell lines; Slightly active; type: functional, cell-based; details: Homo sapiens
[25] = tested on: NCI-H292; assay: Cytotoxicity was evaluated against H292 tumor cell lines; Slightly active; type: functional, cell-based; details: Homo sapiens
[26] = tested on: B16; assay: Cytotoxicity was evaluated against B16 tumor cell lines; Slightly active; type: functional, cell-based; details: Mus musculus
[27] = tested on: NIH3T3; assay: Cytotoxicity was evaluated against NIH3T3 tumor cell lines; Slightly active; type: functional, cell-based; details: Mus musculus
[28] = tested on: CCRF-CEM; assay: Cytotoxicity was evaluated against CEM tumor cell lines; Slightly active; type: functional, cell-based; details: Homo sapiens
[29] = tested on: MOLT-4; assay: Cytotoxicity was evaluated against Molt-4 tumor cell lines; Inactive; type: functional, cell-based; details: Homo sapiens
[30] = tested on: CCRF-CEM; assay: Cytotoxicity was evaluated against CEM tumor cell lines; Inactive; type: functional, cell-based; details: Homo sapiens
[31] = tested on: MCF7; assay: Cytotoxicity was evaluated against MCF-7 tumor cell lines; Inactive; type: functional, cell-based; details: Homo sapiens
[32] = tested on: L1210; assay: Cytotoxicity was evaluated against L1210 tumor cell lines; Inactive; type: functional, cell-based; details: Mus musculus
[33] = tested on: HL-60; assay: Cytotoxicity was evaluated against HL-60 tumor cell lines; Inactive; type: functional, cell-based; details: Homo sapiens
[34] = tested on: NCI-H596; assay: Cytotoxicity was evaluated against H596 tumor cell lines; Inactive; type: functional, cell-based; details: Homo sapiens
[35] = tested on: WIL2; assay: Cytotoxicity was evaluated against WIL2 tumor cell lines; Inactive; type: functional, cell-based; details: Homo sapiens
[36] = tested on: NCI-H292; assay: Cytotoxicity was evaluated against H292 tumor cell lines; Inactive; type: functional, cell-based; details: Homo sapiens
[37] = tested on: WI-38; assay: Cytotoxicity was evaluated against WI38 tumor cell lines; Inactive; type: functional, cell-based; details: Homo sapiens
[38] = tested on: A549; assay: Cytotoxicity was evaluated against A549 tumor cell lines; Inactive; type: functional, cell-based; details: Homo sapiens
[39] = tested on: B16; assay: Cytotoxicity was evaluated against B16 tumor cell lines; Inactive; type: functional, cell-based; details: Mus musculus
[40] = tested on: K562; assay: Cytotoxicity was evaluated against K562 tumor cell lines; Inactive; type: functional, cell-based; details: Homo sapiens
[41] = tested on: NIH3T3; assay: Cytotoxicity was evaluated against NIH3T3 tumor cell lines; Inactive; type: functional, cell-based; details: Mus musculus

| IC50 [13] [µM] | Structure (SMILES) | Cytotoxicity [16] | Cytotoxicity [17] | Cytotoxicity [18] | Cytotoxicity [19] | Cytotoxicity [20] | Cytotoxicity [21] | Cytotoxicity [22] | Cytotoxicity [23] | Cytotoxicity [24] | Cytotoxicity [25] | Cytotoxicity [26] | Cytotoxicity [27] | Cytotoxicity [28] | Cytotoxicity [29] | Cytotoxicity [30] | Cytotoxicity [31] | Cytotoxicity [32] | Cytotoxicity [33] | Cytotoxicity [34] | other results |
| --- | --- | --- | --- | --- | --- | --- | --- | --- | --- | --- | --- | --- | --- | --- | --- | --- | --- | --- | --- | --- | --- |
| 0.004 | COc1cc2c(c(N)c1OC)C(=O)/C(=C/c1cc(C)c(O)c(C)c1)C2 | – | – | – | – | – | – | – | – | – | – | – | – | – | – | – | – | – | – | – | Cytotoxicity [1]: Significant activity; Cytotoxicity [2]: Significant activity; Cytotoxicity [3]: Significant activity; Cytotoxicity [4]: Significant activity; Cytotoxicity [5]: Significant activity; Cytotoxicity [6]: Significant activity; Cytotoxicity [7]: Significant activity; Cytotoxicity [8]: Significant activity; Cytotoxicity [9]: Significant activity; IP+SC score [10]: >20; Cytotoxicity [11]: Significant activity; Cytotoxicity [12]: Significant activity; Cytotoxicity [14]: Significant activity; Cytotoxicity [15]: Significant activity |
| 40 | COc1cc2c(cc1OC)C(=O)/C(=C/c1ccc(N)cc1)CC2 | Weak activity | Weak activity | Weak activity | Weak activity | Weak activity | Weak activity | Weak activity | Weak activity | Weak activity | Weak activity | Weak activity | Weak activity | Weak activity | – | – | – | – | – | – | – |
| > 50 | COc1cc2c(cc1OC)C(=O)/C(=C/c1cccc(OC)c1OC)CC2 | – | – | – | – | – | – | – | – | – | – | – | – | – | inactive | inactive | inactive | inactive | inactive | inactive | Cytotoxicity [35]: inactive; Cytotoxicity [36]: inactive; Cytotoxicity [37]: inactive; Cytotoxicity [38]: inactive; Cytotoxicity [39]: inactive; Cytotoxicity [40]: inactive; Cytotoxicity [41]: inactive |
| 25 | COc1cc2c(cc1OC)C(=O)/C(=C/c1cc(C)c([N+](=O)[O-])c(C)c1)C2 | Weak activity | Weak activity | Weak activity | Weak activity | Weak activity | Weak activity | Weak activity | Weak activity | Weak activity | Weak activity | Weak activity | Weak activity | Weak activity | – | – | – | – | – | – | – |
| > 50 | COc1ccccc1/C=C1\CCc2cc(OC)c(OC)cc2C1=O | – | – | – | – | – | – | – | – | – | – | – | – | – | inactive | inactive | inactive | inactive | inactive | inactive | Cytotoxicity [35]: inactive; Cytotoxicity [36]: inactive; Cytotoxicity [37]: inactive; Cytotoxicity [38]: inactive; Cytotoxicity [39]: inactive; Cytotoxicity [40]: inactive; Cytotoxicity [41]: inactive |
| > 50 | COc1ccc(/C=C2\CCc3cc(OC)c(OC)cc3C2=O)cc1OC | – | – | – | – | – | – | – | – | – | – | – | – | – | inactive | inactive | inactive | inactive | inactive | inactive | Cytotoxicity [35]: inactive; Cytotoxicity [36]: inactive; Cytotoxicity [37]: inactive; Cytotoxicity [38]: inactive; Cytotoxicity [39]: inactive; Cytotoxicity [40]: inactive; Cytotoxicity [41]: inactive |
| > 50 | COc1cc2c(c([N+](=O)[O-])c1OC)C(=O)/C(=C/c1cc(C)c([N+](=O)[O-])c(C)c1)C2 | – | – | – | – | – | – | – | – | – | – | – | – | – | inactive | inactive | inactive | inactive | inactive | inactive | Cytotoxicity [35]: inactive; Cytotoxicity [36]: inactive; Cytotoxicity [37]: inactive; Cytotoxicity [38]: inactive; Cytotoxicity [39]: inactive; Cytotoxicity [40]: inactive; Cytotoxicity [41]: inactive |

The next lines start with the molecule.

| Structure (SMILES) | IC50 [13] [µM] | Cytotoxicity [16] | Cytotoxicity [17] | Cytotoxicity [18] | Cytotoxicity [19] | Cytotoxicity [20] | Cytotoxicity [21] | Cytotoxicity [22] | Cytotoxicity [23] | Cytotoxicity [24] | Cytotoxicity [25] | Cytotoxicity [26] | Cytotoxicity [27] | Cytotoxicity [28] | Cytotoxicity [29] | Cytotoxicity [30] | Cytotoxicity [31] | Cytotoxicity [32] | Cytotoxicity [33] | Cytotoxicity [34] | other results |
| --- | --- | --- | --- | --- | --- | --- | --- | --- | --- | --- | --- | --- | --- | --- | --- | --- | --- | --- | --- | --- | --- |
| COc1cc2c(cc1OC)C(=O)/C(=C/c1cc(C)ccc1C)C2 | 30.5 | Weak activity | Weak activity | Weak activity | Weak activity | Weak activity | Weak activity | Weak activity | Weak activity | Weak activity | Weak activity | Weak activity | Weak activity | Weak activity | – | – | – | – | – | – | – |
| COc1cc2c(cc1OC)C(=O)/C(=C/c1cc(C)c(O)c(C)c1)C2 | 0.006 | – | – | – | – | – | – | – | – | – | – | – | – | – | – | – | – | – | – | – | Cytotoxicity [1]: Significant activity; Cytotoxicity [2]: Significant activity; Cytotoxicity [3]: Significant activity; Cytotoxicity [4]: Significant activity; Cytotoxicity [5]: Significant activity; Cytotoxicity [6]: Significant activity; Cytotoxicity [7]: Significant activity; Cytotoxicity [8]: Significant activity; Cytotoxicity [9]: Significant activity; IP+SC score [10]: >20; Cytotoxicity [11]: Significant activity; Cytotoxicity [12]: Significant activity; Cytotoxicity [14]: Significant activity; Cytotoxicity [15]: Significant activity |
| COc1cc2c(c(N)c1O)C/C(=C\c1cc(C)c(O)c(C)c1)C2=O | 30 | Weak activity | Weak activity | Weak activity | Weak activity | Weak activity | Weak activity | Weak activity | Weak activity | Weak activity | Weak activity | Weak activity | Weak activity | Weak activity | – | – | – | – | – | – | – |
| COc1cc2c(cc1OC)C(=O)/C(=C/c1cccc([N+](=O)[O-])c1)C2 | 22 | Weak activity | Weak activity | Weak activity | Weak activity | Weak activity | Weak activity | Weak activity | Weak activity | Weak activity | Weak activity | Weak activity | Weak activity | Weak activity | – | – | – | – | – | – | – |
| COc1cc2c(cc1OC)C(=O)/C(=C/c1cc(C)c(OC(=O)OCC(C)C)c(C)c1)C2 | 21.5 | Weak activity | Weak activity | Weak activity | Weak activity | Weak activity | Weak activity | Weak activity | Weak activity | Weak activity | Weak activity | Weak activity | Weak activity | Weak activity | – | – | – | – | – | – | – |
